In patent US10966968B2 (Amarin Pharmaceuticals Ireland Limited, priority 2013, dated 2021):

Tests used:
[1] = Safety evaluation in the drug-drug interaction study (adverse events, laboratory, vital signs); assay type: in vivo, human; conditions: rosiglitazone 8 mg with ethyl eicosapentaenoate 4 g/day, healthy subjects
Excerpt: Safety evaluations consisted of monitoring adverse events (AEs), clinical laboratory measurements (chemistry, hematology, and urinalysis), vital signs (systolic and diastolic blood pressure, heart rate, respiratory rate and oral body temperature), and physical examination findings.

[2] = Phase 1 open-label crossover drug-drug interaction study: rosiglitazone plasma pharmacokinetics without and with ethyl eicosapentaenoate
Experimental: Eligibility assessments and clinical laboratory testing were performed within a 28-day screening period. All eligible subjects received the same treatment. […] On days 12-29, subjects received oral doses of 4 g icosapent ethyl (2 liquid-filled 1 g gelatin capsules) twice daily, with or following the morning and evening meals. All study drugs were taken with 240 mL water. Rosiglitazone was administered by study personnel at the research unit, and thus compliance calculations were not necessary. icosapent ethyl was either administered by study personnel during scheduled visits or self-administered by subjects while away from the study site. Compliance to icosapent ethyl (days 12-29) was evaluated by counting and reconciling unused capsules against subject diaries and was calculated as: (used capsules/total dosing days×4)×100.
Doses selected for study were based on established PK profiles of both agents.
Eligible subjects were healthy nonsmoking men and women between the ages of 19 and 55 years with a body mass index >18 and ≤35 kg/m^2 and in good health as determined by medical history and medical examination. Women who were pregnant, nursing, or planning a pregnancy were excluded; female subjects of childbearing potential were required to use an acceptable method of birth control. Subjects were prohibited from ingesting medications and supplements that contained EPA and/or docosahexaenoic acid (DHA), fish meals, foods fortified with EPA and/or DHA, lipid-medications and dietary supplements with known or potential lipid-altering effects including statins, niacin >200 mg/day, fibrates, ezetimibe, and bile acid sequestrants or medications or supplements that may influence the measurements of EPA concentrations in plasma until after the last PK sample collection.

[3] = independent of dose; cited from earlier work
CYP2C8 = molecular target: T1, CYP2C8 (Homo sapiens, UniProt P10632); experiment: Effect of ethyl eicosapentaenoate on metabolism/exposure of rosiglitazone (CYP2C8 substrate) in the drug-drug interaction study; assay type: in vivo; conditions: at steady state, 4 g/day, healthy subjects
T1 construct: from tissue; host or cells: living healthy human subjects (in vivo; endogenous enzyme)
T1 sequence (P10632 1-490): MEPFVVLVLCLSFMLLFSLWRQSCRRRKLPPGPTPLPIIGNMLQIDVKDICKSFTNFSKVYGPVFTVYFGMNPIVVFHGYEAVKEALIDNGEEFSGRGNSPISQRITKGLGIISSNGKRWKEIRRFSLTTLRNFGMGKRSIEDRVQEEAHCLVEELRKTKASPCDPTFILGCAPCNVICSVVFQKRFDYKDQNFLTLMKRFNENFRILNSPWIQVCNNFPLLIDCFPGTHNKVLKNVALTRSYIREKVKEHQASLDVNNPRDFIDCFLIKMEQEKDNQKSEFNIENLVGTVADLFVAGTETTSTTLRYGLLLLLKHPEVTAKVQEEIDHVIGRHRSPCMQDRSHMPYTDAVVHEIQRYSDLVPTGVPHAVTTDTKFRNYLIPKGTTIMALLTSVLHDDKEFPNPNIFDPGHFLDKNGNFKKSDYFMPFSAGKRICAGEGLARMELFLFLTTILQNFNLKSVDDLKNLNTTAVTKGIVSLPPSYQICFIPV
Excerpt: Nonparametric statistics included median and data range (minimum-maximum).

[4] = both, human, plasma, oral, 8 mg

For `CN(CCOc1ccc(CC2SC(=O)NC2=O)cc1)c1ccccn1` (centres unmarked) [Rosiglitazone, rosiglitazone], the “safety and tolerability of concomitant administration” value [1] was “safe and well-tolerated”, the serious adverse events [1] was “No serious adverse events” and the Tmax ([2]; both, human, plasma, oral) was 0.8 h. For the same molecule, the half-life ([2]; both, human, plasma, oral) was 4.1 h, the AUC(0-t) [2, 4] was 3150 ng·h/mL and the Tmax [2, 4] was 0.8 h. The half-life [2, 4] was 4.4 h, the Cmax ([2]; both, human, plasma, oral, 8 mg, Cmax, rosiglitazone 8 mg alone, mean (SD)) was 672 ng/mL and the AUC(0-inf) ([2]; both, human, plasma, oral, 8 mg, LSGM AUC0-inf, rosiglitazone alone, least squares geometric mean from mixed models) was 3150 ng·h/mL. For the same molecule, the Cmax ([2]; both, human, plasma, oral, 8 mg, LSGM Cmax, rosiglitazone alone, least squares geometric mean from mixed models) was 647 ng/mL, the AUC(0-inf) ([2]; both, human, plasma, oral, AUC0-inf, rosiglitazone 8 mg with EPA 4 g (day 29), healthy subjects, plasma, mean (SD)) was 2920 ng·h/mL and the Cmax ([2]; both, human, plasma, oral, Cmax, rosiglitazone 8 mg with EPA 4 g, mean (SD)) was 673 ng/mL. The AUC(0-inf) ([2]; both, human, plasma, oral, LSGM AUC0-inf, rosiglitazone + EPA, least squares geometric mean from mixed models) was 2840 ng·h/mL, the Cmax ([2]; both, human, plasma, oral, LSGM Cmax, rosiglitazone + EPA, least squares geometric mean from mixed models) was 650 ng/mL and the AUC(0-inf) ([2]; both, human, plasma, po, 8 mg, AUC0-inf, rosiglitazone 8 mg single oral dose alone (day 11), healthy subjects, plasma, mean (SD)) was 3230 ng·h/mL. The Kel ([2]; rosiglitazone 8 mg alone, mean (SD)) was 0.16 (0.02) 1/h, the Kel ([2]; rosiglitazone 8 mg with EPA 4 g, mean (SD)) was 0.17 (0.03) 1/h and the “difference in AUC0-inf and Cmax, alone compared to co-administration with ethyl eicosapentaenoate” value ([2]; rosiglitazone 8 mg, ethyl eicosapentaenoate 4 g/day) was “no significant difference”. For the same molecule, the elimination half-life [3] was 3 to 4 h.

For `CC/C=C\C/C=C\C/C=C\C/C=C\C/C=C\CCCC(=O)OCC` [ethyl eicosapentaenoate, all-cis eicosa-5,8,11,14,17-pentaenoic acid ethyl ester], the “safety and tolerability of concomitant administration” value [1] was “safe and well-tolerated”, the serious adverse events [1] was “No serious adverse events” and the “exposure changes of rosiglitazone when administered concomitantly” value (CYP2C8) was “no clinically relevant exposure changes”. For the same molecule, the “inhibition of the metabolism of rosiglitazone” value (CYP2C8) was “does not inhibit”.
